Results from PubChem BioAssay (NCI).
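Results reflect a 48-hour exposure of cells in 96-well plates to compound at five concentrations. TGI marks complete inhibition of growth.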

How the values were obtained:
Experiment in all cases: DTP human tumour cell line panel, 48 h
[1] = tested on: TK-10 renal
[2] = tested on: HL-60(TB) leukemia
[3] = tested on: MDA-N
[4] = tested on: UACC-62 melanoma
[5] = tested on: HOP-92 NSCLC
[6] = tested on: SK-MEL-28 melanoma
[7] = tested on: NCI-H23 lung
[8] = tested on: SK-OV-3 ovarian
[9] = tested on: OVCAR-4 ovarian
[10] = tested on: MALME-3M melanoma
[11] = tested on: SK-MEL-2 melanoma
[12] = tested on: U251 CNS
[13] = tested on: NCI-H522 lung
[14] = tested on: SN12C renal
[15] = tested on: MCF7 breast
[16] = tested on: 786-0 renal
[17] = tested on: MDA-MB-435
[18] = tested on: SW-620 colon
[19] = tested on: LOX IMVI melanoma
[20] = tested on: MOLT-4 leukemia

SMILES | TGI [1] [µM] | TGI [2] [µM] | TGI [3] [µM] | TGI [4] [µM] | TGI [5] [µM] | TGI [6] [µM] | TGI [7] [µM] | TGI [8] [µM] | TGI [9] [µM] | TGI [10] [µM] | TGI [11] [µM] | TGI [12] [µM] | TGI [13] [µM] | TGI [14] [µM] | TGI [15] [µM] | TGI [16] [µM] | TGI [17] [µM] | TGI [18] [µM] | TGI [19] [µM] | TGI [20] [µM]
O=C(O)c1[nH]c(=O)[nH]c(=O)c1CN1CCCCC1 | > 100 | > 100 | > 100 | > 100 | > 100 | > 100 | > 100 | > 100 | > 100 | > 100 | > 100 | > 100 | > 100 | > 100 | > 100 | > 100 | > 100 | > 100 | > 100 | 
O=S(Nc1ccccc1)c1ccccc1Oc1ccccc1 (stereo not drawn) | > 100 | > 100 | > 100 |  |  | > 100 | > 100 |  |  | > 100 |  | > 100 | > 100 | > 100 | > 100 | > 100 | > 100 | > 100 | > 100 | > 100
CCOC(=O)c1ccc(OCc2nc3cc(C(F)(F)F)ccc3nc2-c2ccccc2)cc1 | > 100 | > 100 | > 100 | > 100 | > 100 | > 100 | > 100 |  | > 100 |  | > 100 | > 100 | > 100 | > 100 | > 100 | > 100 | > 100 | > 100 | > 100 | > 100
COc1c(N2CCCCC2)c2c(=O)c3ccccc3oc2c2cc(C)oc12 | > 100 | 58 | 63.9 | 68.3 | 55.6 | > 100 | > 100 | > 100 | > 100 | 81 | 61.6 | > 100 |  | 84.8 | > 100 | > 100 | > 100 | > 100 | 86.5 | > 100
Nc1cc(N2CCOCC2)nc(=O)n1-c1ccccc1 |  | > 100 | > 100 | > 100 | > 100 | > 100 | > 100 | > 100 |  |  | > 100 | > 100 |  | > 100 | > 100 | > 100 | > 100 | > 100 | > 100 | > 100
O=C1CC(C(O)C(O)C(O)CO)CC(=O)N1 (stereo not drawn) | > 100 | > 100 | > 100 |  | > 100 | > 100 | > 100 |  | > 100 | > 100 |  | > 100 | > 100 | > 100 | > 100 | > 100 | > 100 | > 100 | > 100 | > 100
CC(=O)Oc1c(C)cc2c(c1C)C(C)(C)CN2C(=O)C(C)(C)C | > 100 | > 100 | > 100 | > 100 | 74.4 | > 100 | > 100 | > 100 | > 100 |  | > 100 | > 100 | > 100 | > 100 | > 100 | > 100 | > 100 | > 100 | > 100 | > 100
[N-]=[N+]=CC(=O)OC1CCc2ccccc21 (stereo not drawn) | > 100 | > 100 | > 100 | > 100 | > 100 | > 100 | > 100 | > 100 | > 100 | > 100 | > 100 | > 100 | > 100 | > 100 | > 100 | > 100 | > 100 | > 100 | > 100 | 
Cc1cccc(C)c1NC(=O)C(=O)C(c1ccccc1Cl)S(=O)(=O)Cc1ccccc1Cl (stereo not drawn) | > 100 | 0.533 | > 100 | > 100 | 44 | > 100 | > 76.9 | > 61 | > 100 |  | > 100 | > 100 | > 100 | > 100 | > 100 | > 71.7 | > 100 | > 100 | > 100 | > 100
CCOc1cc(/C=N\O)cc(/C=N/O)c1O | > 100 | > 100 | > 100 | > 100 | 60.4 | > 100 | > 100 | > 100 | > 100 | > 100 | 41 | 84.3 |  | > 100 | 25 | > 100 | > 100 | > 100 | 71.9 | 99
C=C1CC(COc2ccc3c(C)c(Cl)c(=O)oc3c2)(c2ccccc2)OC1=O (stereo not drawn) | 3.18 | 1.42 | 5.48 | 3.53 | 3.01 | 6.43 | 3.84 | 16.2 | 3.67 | 3.75 | 3.36 | 20.4 | 3.93 | 20.1 | 5.14 | 2.95 | 7.6 | 2.62 | 2.82 | 
CCOP(=O)(OCC)c1cc2cc(O)ccc2oc1=O | > 100 | > 100 | > 100 | > 100 | > 100 | > 100 | > 100 | > 100 | > 100 |  |  | > 100 | > 100 | > 100 | > 100 | > 100 | > 100 | > 100 | > 100 | 
S=C(Nc1ccc(Cl)cc1)c1ccc(CN2CCCCC2)s1 |  | 6.97 | 16.8 | 21.7 |  | 37.2 | 8.63 |  | 80.7 |  | > 100 | > 100 | 75 | 39.2 | 61.9 | > 100 | 67.6 | > 100 | 6.14 | 30.5
CCOC(=O)CC[C@H](NC(=O)c1ccc(CNc2nc3cc(C(F)(F)F)ccc3nc2C(=O)OCC)cc1)C(=O)OCC | 38.5 | > 100 | > 100 | 43 | 48.9 | > 100 | > 100 | > 100 |  | 50.3 | > 94.1 | 18.5 | 29.1 | > 100 | > 51.9 | 18.8 | > 100 | > 100 | > 100 | > 100
COc1c(C(=O)/C(=N/Nc2cccc(Cl)c2)C(C)=O)c(O)c(OC)c2occc12 | > 100 | > 100 | > 100 | > 100 | > 100 | > 100 | > 100 | > 100 |  | > 100 | > 100 | > 100 | > 100 | > 100 | > 100 | > 100 | > 100 | > 100 | > 100 | > 100
Cc1ccc2c(=O)cc(-c3cc4ccccc4s3)[nH]c2n1 | > 100 | > 100 | > 100 | > 100 |  | > 100 | > 100 | > 100 | > 100 | > 100 | > 100 | > 100 | > 100 | > 100 | > 100 | > 100 | > 100 | > 100 | > 100 | > 100
O=C(CC(C(=O)c1cccs1)c1ccsc1)c1ccc(Cl)cc1 (stereo not drawn) | > 100 | > 100 | > 100 | > 100 |  | > 100 | > 100 | > 100 | > 100 | > 100 | > 100 | > 100 |  | > 100 | > 100 | > 100 | > 100 | > 100 | > 100 | > 100
CC1(C)CC(=O)c2c([nH]c(=S)c(C#N)c2-c2ccc(Br)cc2)C1 | > 100 | > 100 | > 100 | > 100 | 52.5 | > 100 | > 100 | > 100 | > 100 | > 100 | 76.6 | > 100 | > 100 | > 100 | > 100 | > 100 | > 100 | > 100 | > 100 | 
CC1(C)[C@H]2CC[C@](C)(C2)[C@]1(S)Cc1ccccn1 | > 100 | 50.9 | > 100 | > 100 | > 100 | > 100 | > 100 | 93.6 |  | > 100 | 46.1 | 36.6 | > 100 | > 100 | > 100 | > 100 | 91.9 | > 100 | 36.8 | 54
Cc1ccc(N/N=C/C2=CC(C)(C)C(C#N)(C#N)C(O)=C2C#N)cc1 | > 100 | 58.1 | > 100 | > 100 | 42.2 | > 100 | > 100 | > 100 | > 100 | > 100 |  |  | > 100 | > 100 | > 100 | > 100 | > 100 | > 100 | > 100 | > 100
OC1C2CCC3C2CC(C(O)(c2ccccc2)c2ccccc2)C13 (stereo not drawn) | > 100 |  | > 100 | > 100 | > 100 | > 100 | > 100 | > 100 | > 100 | 71.3 | 48.2 | > 100 | > 100 | 47 | > 100 | > 100 | > 100 | > 100 | > 100 | 74
COc1ccc(OC)c2sc(N3C(=O)/C(=C/c4ccc(SC)cc4)N=C3c3ccccc3)nc12 | > 100 | 64.9 | 42.5 | > 100 | > 100 | > 100 |  | > 100 | 87.6 |  | 42.7 | 32.3 |  | 70.2 | 48.1 | > 100 | 37.6 | > 100 | 64.4 | 80.5
CC(=O)O[C@H]1C[C@H]2[C@@H]([C@H](OC(C)=O)C[C@@H]3CC4(CC[C@@]32C)OOC2(CCCCC2)OO4)[C@@H]2CC[C@H]([C@H](C)CCC(N)=O)[C@@]12C | 6.27 | 3.81 | 3.71 | 6.31 |  | 24.7 | 2.83 | 25.5 | 4.21 | 6.82 | 4.48 | 3.15 | 1.48 | 5.5 | 9.29 | 3.52 | 3.27 | 5.77 |  | 2.9
O=C1CSC(c2c[nH]c3ccccc23)N1c1cccc([N+](=O)[O-])c1 (stereo not drawn) | > 100 | > 100 | > 100 | > 100 | > 100 | > 100 | > 100 | > 100 | > 100 |  |  | > 100 | > 100 | > 100 | > 100 | > 100 | > 100 | > 100 | > 100 | > 100
CCCCCCCCCCCCCCCCC(=O)NCC(=O)NCC(=O)NC(Cc1ccccc1)C(=O)Oc1ccc([N+](=O)[O-])cc1 (stereo not drawn) | > 100 | > 100 | > 100 | 40.5 | > 100 | 30.3 | > 100 |  | > 100 |  | > 100 | 43.3 | 55.2 | 34.6 | > 100 | 72.9 | > 100 | 37.2 | 38.7 | 38.7
